Experimental data taken from ChEMBL document CHEMBL1201862, “PubChem BioAssay data set” (2004).
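The compound was tested at five concentrations on cells cultured in 96-well plates, with a 48-hour exposure period. GI50 is the concentration that inhibits growth by half.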 Activity calls are given as the source filed them. Cut-off read from the data, not from the text of the source: active = GI50 up to about 1.1 µM and inactive = higher.

What was measured:
Assay in all cases: DTP human tumour cell line panel, 48 h
SK-MEL-2 = tested on: SK-MEL-2
Hs-578T = tested on: Hs-578T
UACC-257 = tested on: UACC-257
BT-549 = tested on: BT-549
HOP-62 = tested on: HOP-62
SK-MEL-5 = tested on: SK-MEL-5
RXF 393 = tested on: RXF 393
MOLT-4 = tested on: MOLT-4
RPMI-8226 = tested on: RPMI-8226
SK-MEL-28 = tested on: SK-MEL-28
PC-3 = tested on: PC-3
CAKI-1 = tested on: CAKI-1
NCI/ADR-RES = tested on: NCI/ADR-RES
SNB-75 = tested on: SNB-75
CCRF-CEM = tested on: CCRF-CEM
HL-60 = tested on: HL-60
SF-295 = tested on: SF-295
NCI-H226 = tested on: NCI-H226
K562 = tested on: K562
EKVX = tested on: EKVX

Measured: GI50

Cn1c(=O)c2nc(SCCN3CCOCC3)[nH]c2n(C)c1=S
inactive: SK-MEL-2 > 100 µM | Hs-578T > 100 µM | UACC-257 > 100 µM | BT-549 > 100 µM | HOP-62 > 100 µM | SK-MEL-5 > 100 µM | RXF 393 > 100 µM | MOLT-4 > 100 µM | RPMI-8226 > 100 µM | SK-MEL-28 > 100 µM | PC-3 > 100 µM | CAKI-1 > 100 µM | NCI/ADR-RES > 100 µM | SNB-75 > 100 µM | CCRF-CEM > 100 µM | HL-60 > 100 µM | SF-295 > 100 µM | NCI-H226 > 100 µM | K562 > 100 µM | EKVX > 100 µM

O=C(NCCCN1CCN(CCCNC(=O)c2cc(-c3ccccc3)nc3ccccc23)CC1)c1cc(-c2ccccc2)nc2ccccc12
inactive: SK-MEL-2 16.3 µM | Hs-578T 13.2 µM | UACC-257 2.29 µM | BT-549 17.6 µM | HOP-62 16.1 µM | SK-MEL-5 2.02 µM | RXF 393 > 30.9 µM | MOLT-4 14 µM | RPMI-8226 7.8 µM | SK-MEL-28 2.05 µM | PC-3 9.62 µM | CAKI-1 7.59 µM | NCI/ADR-RES 24.1 µM | SNB-75 > 38.1 µM | CCRF-CEM 11.6 µM | HL-60 > 32.7 µM | SF-295 12.3 µM | NCI-H226 27.7 µM | K562 5.02 µM | EKVX 21.5 µM

CCOC(=O)Cn1nnc2ccc(Nc3nc4ccccc4nc3-c3ccccc3)cc21
inactive: SK-MEL-2 > 100 µM | Hs-578T 75.2 µM | UACC-257 70.5 µM | BT-549 > 100 µM | HOP-62 48 µM | SK-MEL-5 > 100 µM | RXF 393 > 100 µM | MOLT-4 > 100 µM | RPMI-8226 > 100 µM | SK-MEL-28 > 100 µM | PC-3 > 100 µM | CAKI-1 > 100 µM | NCI/ADR-RES > 100 µM | SNB-75 30.8 µM | CCRF-CEM > 100 µM | HL-60 > 100 µM | SF-295 85.5 µM | NCI-H226 > 100 µM | K562 > 100 µM | EKVX > 100 µM

COc1ccccc1NC1=NCC(C)S1 (stereo not given)
inactive: SK-MEL-2 > 100 µM | Hs-578T > 100 µM | UACC-257 > 100 µM | BT-549 > 100 µM | HOP-62 > 100 µM | SK-MEL-5 > 100 µM | RXF 393 33.8 µM | MOLT-4 > 100 µM | RPMI-8226 > 100 µM | SK-MEL-28 > 100 µM | PC-3 > 100 µM | CAKI-1 > 100 µM | NCI/ADR-RES > 100 µM | SNB-75 > 100 µM | CCRF-CEM > 100 µM | HL-60 > 100 µM | SF-295 > 100 µM | NCI-H226 > 100 µM | K562 > 100 µM | EKVX > 100 µM

CC1(C)CCCCCCC2OC2CCCCCC(C)(C)C1=O (stereo not given)
inactive: SK-MEL-2 31.8 µM | Hs-578T 45.1 µM | UACC-257 30.7 µM | BT-549 27.5 µM | HOP-62 49.8 µM | SK-MEL-5 22.3 µM | RXF 393 20.1 µM | MOLT-4 24 µM | RPMI-8226 32.5 µM | SK-MEL-28 65.2 µM | PC-3 35.1 µM | CAKI-1 20.5 µM | NCI/ADR-RES 25.9 µM | SNB-75 28 µM | CCRF-CEM 28.2 µM | HL-60 22.4 µM | SF-295 31.2 µM | NCI-H226 > 56.4 µM | K562 30 µM | EKVX 60.1 µM

CCOC(=O)N1CCN(c2nc(C)n(-c3ccccc3)c(=S)c2C#N)CC1
inactive: SK-MEL-2 > 76.4 µM | Hs-578T 34.3 µM | UACC-257 > 86.9 µM | BT-549 > 51.9 µM | HOP-62 > 75.5 µM | SK-MEL-5 > 100 µM | RXF 393 > 95.9 µM | MOLT-4 > 40.1 µM | RPMI-8226 > 62.7 µM | SK-MEL-28 61 µM | PC-3 > 43.4 µM | CAKI-1 > 66.4 µM | NCI/ADR-RES 30 µM | SNB-75 37.2 µM | CCRF-CEM > 23.4 µM | HL-60 > 28.7 µM | SF-295 > 66.4 µM | NCI-H226 > 61.8 µM | K562 > 50 µM | EKVX > 82.2 µM

CC(C)=CCC[C@@H](C)C1=C(O)C(=O)C(C)=C(Nc2ccccc2)C1=O
inactive: SK-MEL-2 20.2 µM | Hs-578T 31.8 µM | UACC-257 28.1 µM | BT-549 24.7 µM | HOP-62 11.3 µM | SK-MEL-5 17.6 µM | RXF 393 19.2 µM | MOLT-4 6.82 µM | RPMI-8226 43.2 µM | SK-MEL-28 43 µM | PC-3 23.9 µM | CAKI-1 15.1 µM | NCI/ADR-RES 4.03 µM | SNB-75 31.5 µM | CCRF-CEM 1.62 µM | HL-60 2.98 µM | SF-295 5.77 µM | NCI-H226 26.7 µM | K562 13.2 µM | EKVX 24.2 µM
